System: EpidermFT™ Skin Model (EFT-400) full thickness skin cultures
Test: Affymetrix GeneChip HG U133 Plus 2.0 microarray global gene expression, agent-exposed vs untreated skin cultures
Format: cell-based, human
[1] = Salicin 0.5% vs Untreated Control, 24 hr, direction down
[2] = probe 201286_at, Table 3 skin structure
[3] = probe 203535_at, Table 3 skin structure
[4] = probe 204422_s_at, Table 3 skin structure

OCc1ccccc1O[C@@H]1O[C@H](CO)[C@@H](O)[C@H](O)[C@H]1O [Salicin, 2-(Hydroxymethyl)phenyl β-D-glucospyranoside]
Fold change WNK1 (211993_at) [1]: 2.037
Fold change ZBTB1 (1557036_at) [1]: 2.05
Fold change ZDHHC21 (241946_at) [1]: 2.09
Fold change ZFYVE21 (219929_s_at) [1]: 2.001
Fold change ZHX1 (223213_s_at) [1]: 2.071
Fold change ZHX1 (223214_s_at) [1]: 2.15
Fold change ZNF85 (1554445_at) [1]: 2.143
Fold change ZNF561 (235200_at) [1]: 2.135
Fold change ZNF589 (219968_at) [1]: 2.059
Fold change ZNF823 (229732_at) [1]: 2.045
Direction DSP (probe 200606_at, 0.5%, 24 hr): down
Fold change DSP (probe 200606_at, 0.5%, 24 hr): 2.848
Direction HSPA1A /// HSPA1B (probe 200800_s_at, 0.5%, 24 hr): up
Fold change HSPA1A /// HSPA1B (probe 200800_s_at, 0.5%, 24 hr): 3.112
Direction SCD (probe 200832_s_at, 0.5%, 24 hr): down
Fold change SCD (probe 200832_s_at, 0.5%, 24 hr): 3.77
Direction ABLIM1 (probe 200965_s_at, 0.5%, 24 hr): down
Fold change ABLIM1 (probe 200965_s_at, 0.5%, 24 hr): 11.88
Direction TGM2 (probe 201042_at, 0.5%, 24 hr): up
Fold change TGM2 (probe 201042_at, 0.5%, 24 hr): 2.351
Direction DUSP1 (probe 201044_x_at, 0.5%, 24 hr): up
Fold change DUSP1 (probe 201044_x_at, 0.5%, 24 hr): 3.726
Direction TIMP3 (probe 201150_s_at, 0.5%, 24 hr): up
Fold change TIMP3 (probe 201150_s_at, 0.5%, 24 hr): 2.058
Direction SDC1 [2]: down
Fold change SDC1 [2]: 4.63
Direction SDC1 (probe 201287_s_at, 0.5%, 24 hr): down
Fold change SDC1 (probe 201287_s_at, 0.5%, 24 hr): 3.32
Direction CLDN4 (probe 201428_at, 0.5%, 24 hr): down
Fold change CLDN4 (probe 201428_at, 0.5%, 24 hr): 3.454
Direction ITGA3 (probe 201474_s_at, 0.5%, 24 hr): down
Fold change ITGA3 (probe 201474_s_at, 0.5%, 24 hr): 2.052
Direction NFKBIA (probe 201502_s_at, 0.5%, 24 hr): up
Fold change NFKBIA (probe 201502_s_at, 0.5%, 24 hr): 3.064
Direction ITGA6 (probe 201656_at, 0.5%, 24 hr): down
Fold change ITGA6 (probe 201656_at, 0.5%, 24 hr): 4.442
Direction KRT5 (probe 201820_at, 0.5%, 24 hr): down
Fold change KRT5 (probe 201820_at, 0.5%, 24 hr): 2.154
Direction EPCAM (probe 201839_s_at, 0.5%, 24 hr): down
Fold change EPCAM (probe 201839_s_at, 0.5%, 24 hr): 2.093
Direction PLAT (probe 201860_s_at, 0.5%, 24 hr): up
Fold change PLAT (probe 201860_s_at, 0.5%, 24 hr): 4.229
Direction ALDH3A2 (probe 202053_s_at, 0.5%, 24 hr): down
Fold change ALDH3A2 (probe 202053_s_at, 0.5%, 24 hr): 4.399
Direction TUBB3 (probe 202154_x_at, 0.5%, 24 hr): down
Fold change TUBB3 (probe 202154_x_at, 0.5%, 24 hr): 2.967
Direction NR4A1 (probe 202340_x_at, 0.5%, 24 hr): up
Fold change NR4A1 (probe 202340_x_at, 0.5%, 24 hr): 2.338
Direction IFI27 (probe 202411_at, 0.5%, 24 hr): down
Fold change IFI27 (probe 202411_at, 0.5%, 24 hr): 4.671
Direction ACSL4 (probe 202422_s_at, 0.5%, 24 hr): up
Fold change ACSL4 (probe 202422_s_at, 0.5%, 24 hr): 3.786
Direction HSPA13 (probe 202558_s_at, 0.5%, 24 hr): up
Fold change HSPA13 (probe 202558_s_at, 0.5%, 24 hr): 3.13
Direction EPS8 (probe 202609_at, 0.5%, 24 hr): up
Fold change EPS8 (probe 202609_at, 0.5%, 24 hr): 2.334
Direction TNFAIP3 (probe 202643_s_at, 0.5%, 24 hr): up
Fold change TNFAIP3 (probe 202643_s_at, 0.5%, 24 hr): 6.915
Direction TNFSF10 (probe 202687_s_at, 0.5%, 24 hr): down
Fold change TNFSF10 (probe 202687_s_at, 0.5%, 24 hr): 20.31
Direction FOXO1 (probe 202724_s_at, 0.5%, 24 hr): up
Fold change FOXO1 (probe 202724_s_at, 0.5%, 24 hr): 2.098
Direction SPINT1 (probe 202826_at, 0.5%, 24 hr): down
Fold change SPINT1 (probe 202826_at, 0.5%, 24 hr): 4.585
Direction DNAJB9 (probe 202843_at, 0.5%, 24 hr): up
Fold change DNAJB9 (probe 202843_at, 0.5%, 24 hr): 3.56
Direction FBN2 (probe 203184_at, 0.5%, 24 hr): up
Fold change FBN2 (probe 203184_at, 0.5%, 24 hr): 2.028
Direction S100A9 [3]: down
Fold change S100A9 [3]: 2.59
Direction LPL (probe 203549_s_at, 0.5%, 24 hr): up
Fold change LPL (probe 203549_s_at, 0.5%, 24 hr): 4.075
Direction PDE4B (probe 203708_at, 0.5%, 24 hr): up
Fold change PDE4B (probe 203708_at, 0.5%, 24 hr): 5.314
Direction AQP3 (probe 203747_at, 0.5%, 24 hr): down
Fold change AQP3 (probe 203747_at, 0.5%, 24 hr): 2.032
Direction DNAJB4 (probe 203810_at, 0.5%, 24 hr): up
Fold change DNAJB4 (probe 203810_at, 0.5%, 24 hr): 2.053
Direction MAP3K5 (probe 203836_s_at, 0.5%, 24 hr): up
Fold change MAP3K5 (probe 203836_s_at, 0.5%, 24 hr): 2.356
Direction THBD (probe 203887_s_at, 0.5%, 24 hr): down
Fold change THBD (probe 203887_s_at, 0.5%, 24 hr): 3.137
Direction PLCB4 (probe 203896_s_at, 0.5%, 24 hr): up
Fold change PLCB4 (probe 203896_s_at, 0.5%, 24 hr): 4.016
Direction FABP4 (probe 203980_at, 0.5%, 24 hr): up
Fold change FABP4 (probe 203980_at, 0.5%, 24 hr): 2.251
Direction LPAR1 (probe 204038_s_at, 0.5%, 24 hr): up
Fold change LPAR1 (probe 204038_s_at, 0.5%, 24 hr): 2.732
Direction FILIP1L (probe 204135_at, 0.5%, 24 hr): down
Fold change FILIP1L (probe 204135_at, 0.5%, 24 hr): 2.996
Direction TUBB2A (probe 204141_at, 0.5%, 24 hr): down
Fold change TUBB2A (probe 204141_at, 0.5%, 24 hr): 2.739
Direction ELOVL6 (probe 204256_at, 0.5%, 24 hr): down
Fold change ELOVL6 (probe 204256_at, 0.5%, 24 hr): 3.121
Direction EDNRB (probe 204273_at, 0.5%, 24 hr): up
Fold change EDNRB (probe 204273_at, 0.5%, 24 hr): 3.916
Direction FGFR3 (probe 204379_s_at, 0.5%, 24 hr): down
Fold change FGFR3 (probe 204379_s_at, 0.5%, 24 hr): 5.288
Direction FGF2 (probe 204421_s_at, 0.5%, 24 hr): up
Fold change FGF2 (probe 204421_s_at, 0.5%, 24 hr): 3.845
Direction FGF2 [4]: up
Fold change FGF2 [4]: 3.455
Direction COL17A1 (probe 204636_at, 0.5%, 24 hr): down
Fold change COL17A1 (probe 204636_at, 0.5%, 24 hr): 3.576
Direction KLK6 (probe 204733_at, 0.5%, 24 hr): down
Fold change KLK6 (probe 204733_at, 0.5%, 24 hr): 16.28
Direction KRT15 (probe 204734_at, 0.5%, 24 hr): down
Fold change KRT15 (probe 204734_at, 0.5%, 24 hr): 3.6
Direction SMAD7 (probe 204790_at, 0.5%, 24 hr): up
Fold change SMAD7 (probe 204790_at, 0.5%, 24 hr): 2.151
Direction PTGER4 (probe 204897_at, 0.5%, 24 hr): up
Fold change PTGER4 (probe 204897_at, 0.5%, 24 hr): 2.525
Direction INFRSF11B (probe 204932_at, 0.5%, 24 hr): up
Fold change INFRSF11B (probe 204932_at, 0.5%, 24 hr): 6.287

Reference: US20120034613A1, “Apparatus and Method for Testing Relationships Between Gene Expression and Physical Appearance of Skin” (NSE Products, Inc., priority 2010, published 2012)
